Source: US20230192701A1, “BICYCLIC KINASE INHIBITORS AND USES THEREOF” (iOmx Therapeutics AG, priority 2020, published 2023)
Values after ≈ are worked out from the molar mass of the structure shown.

Tests used:
[1] = Mouse hepatocyte stability; assay type: in vitro ADME; conditions: mouse hepatocytes, 37°C
Procedure: (§1) Determination of human and mice hepatocyte stability was conducted as follows. 200 uL of the respective hepatocyte cell suspension (2×10e6/ml) was preincubated at 37° C. for 10 min. Then, 200 uL of a 2 uM working stock of the test compound was added to the hepatocyte cell suspension, and the mixture was further incubated at 37° C. and 500 rpm. The reaction was stopped at 30, 60 and 120 min by precipitating 50 uL of the incubation mixture with 200 uL of acetonitrile. Samples were vortexed for 5 min at 1200 rpm and centrifuged at 4000 rpm for 10 min. Intrinsic clearance and half-life were analysed using LC-MS/MS.
(§2) LC-MS/MS was performed for all assays using a C18 column (50*4.6 mm, 5 um) for the CaCo2 assay, or a C18 column (50*4.6 mm, 4 um) for the other assays. The mobile phases used were 10 mM Ammonium Acetate with 0.1% Formic acid (aqueous) and 100% Acetonitrile (organic).

Kinetic solubility assay = assay type: physicochemical; conditions: aqueous buffer, kinetic from dmso stock; PBS buffer pH 7.4, 1.0% DMSO, 24 h at RT
Procedure: The Kinetic solubility assay was conducted as follows. 4 uL compound of the 50 mM DMSO stock was added to deep well plate containing 396 uL PBS buffer (pH 7.4). The DMSO content in the sample was 1.0%, and the compound concentration 500 μM. The sample plate was vortexed at 800 rpm for 24 h at RT on a thermomixer. At the end of the incubation period, the sample plate was centrifuged at 4000 rpm for 10 mins. 3 uL of supernatant was transferred to well containing 297 uL of ISTD in Acetonitrile water:50:50, v/v and analysed in LC-MS/MS against a calibration curve (CC).

[2] = test system: 335 wild-type protein kinases; assay: single-point inhibition assays, residual activity (ProQinase Kinase Profiler); assay type: biochemical; conditions: single-point 0.1 uM and 1 uM, 335 kinases
Procedure: Several compounds of Formula (I) described herein were also tested in single-point (0.1 uM and 1 uM) inhibition assays over a diverse set of 335 wild-type protein (ProQinase “Kinase Profiler”; ProQinase, Freiburg, Germany), in which the residual activity of each kinase was determined. […] Secondly, the residual activity of each kinase was compared to other compounds tested (in particular, against the prior art compounds PY1) by use of scatter plots.

[3] = Murine plasma protein binding (RED method); assay type: in vitro ADME; conditions: mouse
Procedure: Human and mice protein plasma binding was determined using the Plasma Protein Binding by RED Method. Briefly, 200 uL of the respective plasma containing the test compound (10 uM) was spiked into the donor well (RED Chamber) of the insert. 350 uL of PBS was spiked into receiver well (white chamber). The plate was incubated at 37° C. in a thermomixer at 400 rpm for 5 hours. The samples were matrix equilibrated with opposite matrix (25 uL blank buffet/Plasma). Matrix matched samples were precipitated with 200 uL of Acetonitrile containing Internal standard. Samples were vortexed at 1000 rpm for 5 min and centrifuged at 4000 rpm for 10 min. The supernatant was diluted 2 folds with water and % bound and unbound protein and % recovery at 5 h was determined by LC-MS/MS.
as §2

SIK3 = SIK3 (Homo sapiens, UniProt Q9Y2K2); assay: radiometric protein kinase assay (33PanQinase Activity Assay), SIK3; assay type: biochemical; conditions: ATP 1.0 μM, substrate RBER-CHKtide
Procedure: The IC50s of the compounds against the SIK family of protein-serine/threonine kinases (SIK2 and SIK3) were determined as followed. Briefly, a radiometric protein kinase assay (33PanQinase® Activity Assay) was used for measuring the kinase activity of the two protein kinases. The kinase assays were performed in 96-well FlashPlates™ from PerkinElmer (Boston, Mass., USA) in a 50 uL reaction volume. The reaction cocktail was pipetted in four steps in the following order: • […] (standard buffer/[gamma-33P]-ATP) • 10 uL of ATP solution (in water) • 5 uL of test compound (in 10% DMSO) • 20 uL enzyme/substrate mix
The following amounts of enzyme and applicable substrate were used per well:
The reaction cocktails were incubated at 30 °C for 60 minutes. The reaction was stopped with 50 uL of 2% (v/v) H3PO4, plates were aspirated and washed two times with 200 μL 0.9% (w/v) NaCl. Incorporation of 33Pi was determined with a microplate scintillation counter (Microbeta, Wallac). All assays were performed with a BeckmanCoulter/SAGIAN™ Core System.

[4] = Human hepatocyte stability; assay type: in vitro ADME; conditions: human hepatocytes, 37°C
Procedure: as §1, §2

SIK3, sequence (Q9Y2K2 whole entry): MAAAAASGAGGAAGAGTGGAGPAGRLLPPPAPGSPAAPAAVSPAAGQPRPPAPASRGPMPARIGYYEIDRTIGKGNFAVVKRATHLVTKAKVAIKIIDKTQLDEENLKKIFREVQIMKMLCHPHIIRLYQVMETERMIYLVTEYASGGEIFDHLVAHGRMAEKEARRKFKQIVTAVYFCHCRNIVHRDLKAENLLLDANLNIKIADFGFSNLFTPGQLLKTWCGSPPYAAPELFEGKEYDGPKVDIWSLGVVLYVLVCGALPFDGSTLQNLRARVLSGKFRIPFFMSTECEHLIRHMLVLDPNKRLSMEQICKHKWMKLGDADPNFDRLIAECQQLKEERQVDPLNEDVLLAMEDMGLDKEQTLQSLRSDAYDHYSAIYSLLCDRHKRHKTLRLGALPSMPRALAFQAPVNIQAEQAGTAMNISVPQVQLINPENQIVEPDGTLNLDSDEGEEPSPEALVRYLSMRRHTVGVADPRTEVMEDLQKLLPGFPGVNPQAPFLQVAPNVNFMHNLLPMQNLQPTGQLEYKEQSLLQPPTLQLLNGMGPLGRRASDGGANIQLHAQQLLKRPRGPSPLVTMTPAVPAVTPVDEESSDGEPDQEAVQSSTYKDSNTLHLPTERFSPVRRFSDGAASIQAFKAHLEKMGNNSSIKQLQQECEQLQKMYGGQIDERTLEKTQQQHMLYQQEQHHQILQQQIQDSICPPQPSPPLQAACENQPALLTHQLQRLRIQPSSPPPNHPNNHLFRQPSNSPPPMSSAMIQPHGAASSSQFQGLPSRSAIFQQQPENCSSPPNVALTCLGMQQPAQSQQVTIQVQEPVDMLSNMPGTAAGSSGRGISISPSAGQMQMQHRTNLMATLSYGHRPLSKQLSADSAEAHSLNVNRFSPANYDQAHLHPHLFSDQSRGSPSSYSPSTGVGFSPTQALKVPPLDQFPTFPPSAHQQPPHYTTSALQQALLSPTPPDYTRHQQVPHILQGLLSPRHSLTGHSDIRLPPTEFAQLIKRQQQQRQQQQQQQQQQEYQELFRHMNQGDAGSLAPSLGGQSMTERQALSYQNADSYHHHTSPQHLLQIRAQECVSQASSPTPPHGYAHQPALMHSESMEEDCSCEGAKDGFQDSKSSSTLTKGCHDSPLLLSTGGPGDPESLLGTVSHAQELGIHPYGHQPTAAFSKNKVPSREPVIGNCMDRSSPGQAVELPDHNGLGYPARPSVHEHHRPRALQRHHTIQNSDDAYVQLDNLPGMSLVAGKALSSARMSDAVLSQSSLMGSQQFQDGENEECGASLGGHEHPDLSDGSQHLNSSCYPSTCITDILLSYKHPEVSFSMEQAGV

half-life at 1 uM [1]: 1.73 h
solubility kinetic at 24 h (Kinetic solubility assay): 6.9 µM (≈ 4.18 µg/mL)
particular kinases with different inhibition than PY1 [2]: BLK, SIK3 and TEC
recovery at 5 h, 10 uM [3]: 40%
IC50 (SIK3): 200 to 400 nM
half-life at 1 uM [4]: 11 h
SMILES: COc1ccc(N2C(=O)N(c3c(C)csc3Cl)Cc3cnc(Nc4ccc(C5CCN(C)CC5)cc4OC)nc32)nc1 [AA1, 3-(2-chloro-4-methylthiophen-3-yl)-7-((2-methoxy-4-(1-methylpiperidin-4-yl)phenyl)amino)-l-(5-methoxypyridin-2-yl)-3,4-dihydropyrimido[4,5-d]pyrimidin-2(1H)-one]
overall kinase profile compared to prior art compound PY1 [2]: most similar overall kinase profile to the prior art compound PY1
